Publication PMC11202142, “Succinimide Derivatives as Acetylcholinesterase Inhibitors—In Silico and In Vitro Studies” (Current Issues in Molecular Biology, 2024)

Legend:
[1] = target: acetylcholinesterase (AChE) (Homo sapiens, UniProt P22303); test: Ellman spectrophotometric assay, Lineweaver-Burk kinetics; format: biochemical
[2] = substrate: CC(=O)SCC[N+](C)(C)C; test: Ellman assay, Km from Lineweaver-Burk plot without inhibitor; format: biochemical, Homo sapiens

Molecule	IC50 [1] [µM]	Km [2] [µM]	Vmax [2] [µM/min]
CCC12C(=O)C(CC)(C(c3ccccc3)=C1c1ccccc1)C1C(=O)NC(=O)C12 (stereo not shown) [I, diethyl (I) succinimide derivative]	31 ± 3		
CC12C(=O)C(C)(C(c3ccccc3)=C1c1ccccc1)C1C(=O)NC(=O)C12 (stereo not shown) [II, dimethyl (II) succinimide derivative]	29 ± 2		
acetylcholinesterase (AChE) (Homo sapiens) (protein) EGREDAELLVTVRGGRLRGIRLKTPGGPVSAFLGIPFAEPPMGPRRFLPPEPKQPWSGVVDATTFQSVCYQYVDTLYPGFEGTEMWNPNRELSEDCLYLNVWTPYPRPTSPTPVLVWIYGGGFYSGASSLDVYDGRFLVQAERTVLVSMNYRVGAFGFLALPGSREAPGNVGLLDQRLALQWVQENVAAFGGDPTSVTLFGESAGAASVGMHLLSPPSRGLFHRAVLQSGAPNGPWATVGMGEARRRATQLAHLVGCPPGGTGGNDTELVACLRTRPAQVLVNHEWHVLPQESVFRFSFVPVVDGDFLSDTPEALINAGDFHGLQVLVGVVKDEGSYFLVYGAPGFSKDNESLISRAEFLAGVRVGVPQVSDLAAEAVVLHYTDWLHPEDPARLREALSDVVGDHNVVCPVAQLAGRLAAQGARVYAYVFEHRASTLSWPLWMGVPHGYEIEFIFGIPLDPSRNYTAEEKIFAQRLMRYWANFARTGDPNEPRDPKAPQWPPYTAGAQQYVSLDLRPLEVRRGLRAQACAFWNRFLPKLLSATDTLDEAERQWKAEFHRWSSYMVHWKNQFDHYSKQDRCSDL		960	630
